We go through 15 compounds from US12304912B2, “Fused bicyclic RAF inhibitors and methods for use thereof” (Jazz Pharmaceuticals Ireland Limited, priority 2020, dated 2025).

≈ marks a conversion by molar mass, not a printed value. Read-outs that look alike come from different tables or passages of the source.

Data set [1] is described as follows: Solubility (Sol), medium not stated. Type of data set: physicochemical. As to conditions: cells not marked (FESSIF).
Data set [2] in a line: Microsomal stability assay, mouse liver microsomes (MLM). Type of data set: in vitro ADME. As to conditions: 0.5 mg/mL protein, 1 μM substrate. The method, then:
(§1) Microsomal Stability Assay
(§2) The stability studies were performed manually using the substrate depletion approach. Test compounds were incubated at 37° C. with cryo-preserved mouse or human liver microsomes (Corning) at a protein concentration of 0.5 mg·mL^−1 and a final substrate concentration of 1 μM. Aliquots were removed from the incubation at defined timepoints and the reaction was terminated by adding to ice-cold organic solvent. Compound concentrations were determined by LC-MS/MS analysis. The natural log of the percentage of compound remaining was plotted against each time point and the slope determined. The half-life (t1/2) and CLint were calculated using Equations 1 and 2, respectively.
(§3) HLM (human liver microsomes) and MLM (mouse liver microsomes) stability assay results are described in Tables 1-2.

Data set [3] relates to constitutive ERK phosphorylation in HCT-116 cells. Description: HCT-116 AlphaLISA SureFire pERK1/2 cellular assay. The note with it: Homo sapiens, read-out: pERK HCT116 (2 hr) Abs pIC50 (converted). Type of data set: cell-based, human. The method, then: HCT-116 AlphaLISA SureFire pERK1/2 Cellular Assay […] […] Assay read outs took place 2 or 24 hours after dosing with compounds. On the first day, HCT-116 cells were harvested, resuspended in growth medium (McCoys5A with Glutamax (Life Technologies 36600021) and 10% heat-inactivated fetal bovine serum (Sigma F9665)), and counted. Cells were plated in 100 μl per well in each well of a 96-well culture dish (Sigma CLS3598) to a final density of 30,000 (2 hr read) or 15,000 (24 hr read) cells per well and incubated over night at 37° C. and 5% CO2. On day 2, the growth medium was exchanged for dosing medium (McCoys5A with Glutamax (Life Technologies 36600021) and 1% heat-inactivated fetal bovine serum (Sigma F9665)) and the cells were dosed with compounds to produce a 10-point dose response, where the top concentration was 1 μM and subsequent concentrations were at 1/3 log dilution intervals. A matched DMSO control was included. The cells were subsequently incubated for either 2 or 24 hours at 37° C. and 5% CO2. After incubation, media was removed and the cells were incubated with lysis buffer containing phosphatase inhibitors for 15 minutes at room temperature. Cell lysates were transferred to a 12 area 96 well white Optiplate™ (Perkin Elmer 6005569) and incubated with anti-mouse IgG acceptor beads, a biotinylated anti-ERK1/2 rabbit antibody recognizing both phosphorylated and non-phosphorylated ERK1/2, a mouse antibody targeted to the Thr202/Tyr204 epitope and recognizing phosphorylated ERK proteins only, and streptavidin-coated donor beads. The biotinylated antibody binds to the streptavidin-coated donor beads and the phopsho-ERK1/2 antibody binds to the acceptor beads. […] Both antibodies bound to phosphorylated ERK proteins, bringing the donor and acceptor beads into close proximity. All data were analyzed using the Dotmatics or GraphPad Prism software packages. Inhibition of ERK phosphorylation was assessed by determination of the absolute IC50 value, which is defined as the concentration of compound required to decrease the level of phosphorylated ERK proteins by 50% when compared to DMSO control.
In general terms: Bead proximity is the source of the signal in Alpha formats.

Data set [4] is described as follows: FeSSIF solubility assay. As to conditions: fed state simulated intestinal fluid (FeSSIF), thermodynamic from solid, pH 5 acetate buffer, 37° C., read-out: FESSIF Sol. Type of data set: physicochemical. The method, then:
FeSSIF Solubility Assay 1 mL of fed state simulated intestinal fluid (FeSSIF), prepared using FaSSIF/FeSSIF/FaSSGF powder (Biorelevant.com) and pH 5 acetate buffer, was added to 1.0 mg of compound and then incubated for 24 h (Bioshake iQ, 650 rpm, 37° C.). Following filtration under positive pressure, the concentration of compound in solution was assessed by LC-UV in comparison to the response for a calibration standard of known concentration (250 μM). FeSSIF solubility results are described in Tables 1-2.

The nature of data set [5]: Microsomal stability assay, human liver microsomes (HLM). The data set is classed as in vitro ADME. As to conditions: 0.5 mg/mL protein, 1 μM substrate, 37° C. On the procedure: as §1, §2, §3
A short description of data set [6]: Plasma protein binding assay, human plasma (hPPB). Type of data set: in vitro ADME. As to conditions: 5 μM, equilibrium dialysis 4 hours at 37° C. On the procedure: (§4) Plasma Protein Binding Assay The plasma protein binding was determined by the equilibrium dialysis method. A known concentration of compound (5 μM) in previously frozen human or mouse plasma (Sera Labs) was dialysed against phosphate buffer using a RED device (Life Technologies) for 4 hours at 37° C. The concentration of compound in the protein containing (PC) and protein free (PF) sides of the dialysis membrane were determined by LC-MS/MS and the % free compound was determined by equation 4. Data analysis was performed using Excel (Microsoft, USA). % free=(1−((PC−PF)/PC))×100 (4) hPPB (human plasma protein binding) and mPPB (mouse plasma protein binding) results are described in Tables 1-2.

The nature of data set [7]: Plasma protein binding assay, mouse plasma (mPPB). Type of data set: in vitro ADME. As to conditions: 5 μM, equilibrium dialysis 4 hours at 37° C. On the procedure: as §4
Where [8] appears, read: HCT-116, HCT116 cells, 2 hr, Abs.

In data set [1], `O=C1CCc2c(Oc3ccc4c(c3)CC(c3cc(-c5ccc(Cl)cc5)n[nH]3)CO4)ccnc2N1` (stereo not shown) [Compound 39] registered a Sol of under 1.2 mg/L. Further, in data set [2], the microsomal CLint (usually the capacity of the preparation to metabolise the compound, expressed as a volume cleared per time) at 1 μM amounted to 15.4 µL/min/mg.

Compound `COc1ccc(-c2cc(C3COc4ccc(Oc5ccnc6c5CCC(=O)N6)cc4C3)[nH]n2)cc1` (stereo not shown) [Compound 43] showed a Sol in data set [1] of under 1.2 mg/L. Further, the microsomal CLint at 1 μM in data set [2] was determined as 23.2 µL/min/mg.

For the compound `O=C1CCc2c(Oc3ccc4c(c3)CC(c3nc(-c5ccnc(C6CC6)c5)c[nH]3)CO4)ccnc2N1` (stereo not shown) [Compound 119, 5-[3-[4-(2-cyclopropyl-4-pyridyl)-1H-imidazol-2-yl]chroman-6-yl]oxy-3,4-dihydro-1H-1,8-naphthyridin-2-one], the IC50 in data set [3] (setting [8]) is 0.724 µM. For the same compound, the solubility thermodynamic at 24 h in data set [4] is under 1.2 µg/mL. The microsomal CLint at 1 μM in data set [5] is 74.2 µL/min/mg; in data set [2] (37° C.), 35.8 µL/min/mg. For the same compound, the “hPPB (% free)” value in data set [6] was determined as 0.6 % free. Also, in data set [7], the “mPPB (% free)” value is 0.9 % free.

On to `CC(C)c1cc(-c2c[nH]c(C3COc4ccc(Oc5ccnc6c5CCC(=O)N6)cc4C3)n2)ccn1` (stereo not shown) [Compound 120, 5-[3-[4-(2-isopropyl-4-pyridyl)-1H-imidazol-2-yl]chroman-6-yl]oxy-3,4-dihydro-1H-1,8-naphthyridin-2-one], for which the IC50 in data set [3] (setting [8]) was 0.955 µM. Also, the solubility thermodynamic at 24 h in data set [4] is 1.3 µg/mL (≈ 2.7 µM). Further, the figures for the microsomal CLint at 1 μM in data set [5] and in data set [2] (37° C.) were 190 µL/min/mg and 89 µL/min/mg, respectively. In data set [6], the “hPPB (% free)” value is 0.9 % free. The “mPPB (% free)” value in data set [7] is 0.6 % free.

For `CC(C)(C)c1cc(-c2c[nH]c(C3COc4ccc(Oc5ccnc6c5CCC(=O)N6)cc4C3)n2)ccn1` (stereo not shown) [Compound 121, 5-[3-[4-(2-tert-butyl-4-pyridyl)-1H-imidazol-2-yl]chroman-6-yl]oxy-3,4-dihydro-1H-1,8-naphthyridin-2-one], the IC50 in data set [3] (setting [8]) was over 1 µM. Moreover, the solubility thermodynamic at 24 h in data set [4] is 38.2 µg/mL (≈ 77.1 µM). For the same compound, the microsomal CLint at 1 μM in data set [5] was 207 µL/min/mg; in data set [2] (37° C.) it was 137 µL/min/mg. Further, in data set [6], the “hPPB (% free)” value stood at 0.4 % free. The “mPPB (% free)” value in data set [7] stood at 0.4 % free.

Take `Cn1cnc2cc(-c3c[nH]c(C4COc5ccc(Oc6ccnc7c6CCC(=O)N7)cc5C4)n3)ccc21` (stereo not shown) [Compound 129, 5-[3-[4-(1-methylbenzimidazol-5-yl)-1H-imidazol-2-yl]chroman-6-yl]oxy-3,4-dihydro-1H-1,8-naphthyridin-2-one]: in data set [3] (setting [8]), the IC50 is over 1 µM. Also, the solubility thermodynamic at 24 h in data set [4] is 16.7 µg/mL (≈ 33.9 µM).

Turning to `Cn1ncc2cc(-c3c[nH]c(C4COc5ccc(Oc6ccnc7c6CCC(=O)N7)cc5C4)n3)ccc21` (stereo not shown) [Compound 131, 5-[3-[4-(1-methylindazol-5-yl)-1H-imidazol-2-yl]chroman-6-yl]oxy-3,4-dihydro-1H-1,8-naphthyridin-2-one], in data set [3] (setting [8]), the IC50 was over 1 µM. The solubility thermodynamic at 24 h in data set [4] is 12.2 µg/mL (≈ 24.8 µM).

For `CC(C)N1CCc2nc(C3COc4ccc(Oc5ccnc6c5CCC(=O)N6)cc4C3)[nH]c2C1` (stereo not shown) [Compound 133, 5-[3-(5-isopropyl-3,4,6,7-tetrahydroimidazo[4,5-c]pyridin-2-yl)chroman-6-yl]oxy-3,4-dihydro-1H-1,8-naphthyridin-2-one], the IC50 in data set [3] (setting [8]) is over 1 µM. In data set [4], the solubility thermodynamic at 24 h is 661 µg/mL (≈ 1440 µM).

With `CC(=O)N1CCc2nc(C3COc4ccc(Oc5ccnc6c5CCC(=O)N6)cc4C3)[nH]c2C1` (stereo not shown) [Compound 135, 5-[3-(5-acetyl-3,4,6,7-tetrahydroimidazo[4,5-c]pyridin-2-yl)chroman-6-yl]oxy-3,4-dihydro-1H-1,8-naphthyridin-2-one], the IC50 in data set [3] (HCT-116, 2 h) is over 1 µM. Further, the solubility thermodynamic at 24 h in data set [4] is 33.2 µg/mL (≈ 72.3 µM).

For the compound `c1ccc(-c2c[nH]c(C3COc4ccc(Oc5ccnc(NC6CCC6)c5)cc4C3)n2)cc1` (stereo not shown) [Compound 142, N-cyclobutyl-4-[3-(4-phenyl-1H-imidazol-2-yl)chroman-6-yl]oxy-pyridin-2-amine], the IC50 in data set [3] (setting [8]) was over 1 µM. For the same compound, the solubility thermodynamic at 24 h in data set [4] was 135 µg/mL (≈ 309 µM).

For the compound `CC(C(=O)Nc1cc(Oc2ccc3c(c2)CC(c2nc(-c4ccccc4)c[nH]2)CO3)ccn1)N1CCOCC1` (stereo not shown) [Compound 150, 2-morpholino-N-[4-[3-(4-phenyl-1H-imidazol-2-yl)chroman-6-yl]oxy-2-pyridyl]propanamide], the IC50 in data set [3] (HCT-116, 2 h) was over 1 µM. In data set [4], the solubility thermodynamic at 24 h is 235 µg/mL (≈ 448 µM).

In the case of `O=C1CCc2c(Oc3ccc4c(c3)CN(c3nc5ccccc5[nH]3)CC4)ccnc2N1` [Compound 159, 5-[[2-(1H-benzimidazol-2-yl)-3,4-dihydro-1H-isoquinolin-7-yl]oxy]-3,4-dihydro-1H-1,8-naphthyridin-2-one], the IC50 in data set [3] (setting [8]) is over 1 µM. Further, in data set [4], the solubility thermodynamic at 24 h was under 1 µg/mL. In addition, the results for the intrinsic clearance (microsomal CLint) at 1 μM in data set [5] and in data set [2] (37° C.) were 19.8 µL/min/mg and 34.4 µL/min/mg, respectively. Further, the “hPPB (% free)” value in data set [6] was found to be 1.0 % free. The “mPPB (% free)” value in data set [7] came to 0.5 % free.

Take `CCCc1ccc2[nH]c(N3CCc4ccc(Oc5ccnc6c5CCC(=O)N6)cc4C3)nc2c1` [Compound 161, 5-[[2-(5-propyl-1H-benzimidazol-2-yl)-3,4-dihydro-1H-isoquinolin-7-yl]oxy]-3,4-dihydro-1H-1,8-naphthyridin-2-one]: the IC50 in data set [3] (setting [8]) is 0.562 µM. Moreover, the solubility thermodynamic at 24 h in data set [4] is under 1.1 µg/mL.

As for `O=C1CCc2c(Oc3ccc4c(c3)CN(c3nc5cc(-c6ccccc6)ccc5[nH]3)CC4)ccnc2N1` [Compound 162, 5-[[2-(5-phenyl-1H-benzimidazol-2-yl)-3,4-dihydro-1H-isoquinolin-7-yl]oxy]-3,4-dihydro-1H-1,8-naphthyridin-2-one], the IC50 in data set [3] (setting [8]) was over 1 µM. In addition, the solubility thermodynamic at 24 h in data set [4] is 13.7 µg/mL (≈ 28.1 µM).

As for `Cc1cc(-c2ccc3[nH]c(N4CCc5ccc(Oc6ccnc7c6CCC(=O)N7)cc5C4)nc3c2)n(C)n1` [Compound 163], the IC50 in data set [3] (setting [8]) was over 1 µM. Further, in data set [4], the solubility thermodynamic at 24 h is under 1.3 µg/mL.
